Measurements taken from patent US20210205365A1, “Chimeric Growth Factor Receptors” (Instil Bio (UK) Ltd., priority 2018, published 2021).

Tests used:
[1] = system: primary human T-cells; assay: Eltrombopag and IL-2 on CrGFR sorted (CD110+) primary human T-cells, up to 7 days; format: cell-based; details: second donor (FIG. 12)
Protocol: FIG. 10—Analysis of Eltrombopag and IL-2 on CrGFR sorted primary human T-cells from Donor 4. Primary human T-cells from donor 4 were transduced with the WT TpoR or variant CrGFR, and enriched for expression by Miltenyi MACS technology selected for and incubated in the presence of IL2 or Eltrombopag. Cells were removed at time points up to 7 days and the number of cells expressing the receptor assessed using PE conjugated anti-CD110 antibodies, DRAQ7 viability dye and a MACSQuant analyser.
FIG. 11—Analysis of Eltrombopag and IL-2 on CrGFR sorted primary human T-cells from Donor 5. Primary human T-cells from donor 5 were transduced with the WT TpoR or variant CrGFR, and enriched for expression by Miltenyi MACS technology selected for and incubated in the presence of IL2 or Eltrombopag. Cells were removed at time points up to 7 days and the number of cells expressing the receptor assessed using PE conjugated anti-CD110 antibodies, DRAQ7 viability dye and a MACSQuant analyser.
FIG. 12—Analysis of Eltrombopag and IL-2 on CrGFR sorted primary human T-cells from Donor 6. Primary human T-cells from donor 6 were transduced with the WT TpoR or variant CrGFR, and enriched for expression by Miltenyi MACS technology selected for and incubated in the presence of IL2 or Eltrombopag. Cells were removed at time points up to 7 days and the number of cells expressing the receptor assessed using PE conjugated anti-CD110 antibodies, DRAQ7 viability dye and a MACSQuant analyser.
Paramagnetic bead sorts were conducted as per the manufacturers' instructions using either anti-PE microbeads (Miltenyi Biotec or StemCell Technologies), or T-cell isolation beads (17951: StemCell Technologies).
Next Applicants repeated the experiment but sorted the CrGFR+ cells using CD110+ selection by paramagnetic bead selection using the receptors identified from the first round of selections (FIGS. 10, 11 and 12). Applicants observed enhanced survival of T-cells engrafted with the majority of the CrGFR in all three donors. In particular Applicants saw expansion of WT-TpoR, TpOR.CD40, TpOR.IL2rγ and TpoR.LMP1-cyto cells in the second donor (FIG. 12) above that with media alone.

[2] = system: primary human T-cells; assay: Eltrombopag and IL-2 on CrGFR transduced primary human T-cells, up to 21 days; format: cell-based; details: after 21 days, x3 donors, Eltrombopag
Protocol: FIGS. 6A-6B—Analysis of Eltrombopag and IL-2 on primary human T-cells from Donor 1. Primary human T-cells from donor 1 were transduced with the WT TpoR or variant CrGFR and incubated in the presence of IL2 or Eltrombopag. Cells were removed at time points up to 21 days and the proportion of cells expressing the receptor assessed using PE conjugated anti-CD110 antibodies and a MACSQuant analyser.
FIGS. 7A-7B—Analysis of Eltrombopag and IL-2 on primary human T-cells from Donor 2. Primary human T-cells from donor 2 were transduced with the WT TpoR or variant CrGFR and incubated in the presence of IL2 or Eltrombopag. Cells were removed at time points up to 21 days and the proportion of cells expressing the receptor assessed using PE conjugated anti-CD110 antibodies and a MACSQuant analyser.
FIGS. 8A-8B—Analysis of Eltrombopag and IL-2 on primary human T-cells from Donor 3. Primary human T-cells from donor 3 were transduced with the WT TpoR or variant CrGFR and incubated in the presence of IL2 or Eltrombopag. Cells were removed at time points up to 21 days and the proportion of cells expressing the receptor assessed using PE conjugated anti-CD110 antibodies and a MACSQuant analyser.
FIGS. 9A-9B—Selection of optimal CrGFRs for next round of analysis. Flow cytometry plots showing expression of CrGFRs in ×3 donor primary human T-cells after 21 days incubation in Eltrombopag. The receptors TpoR.CD40, TpoR.IL2rγ, TpoR.ITAM1, TpoR.A60, TpoR.LMP1-cyto and TpoR.TpoR-cyto.LMP1-cyto were chosen for future comparison with the wt TpoR.
Peripheral blood mononuclear cells were isolated from normal healthy donors before activation for 24 hours with T-cell activation and expansion beads (Invitrogen) according to the manufacturer's instructions before addition of lentiviral supernatants.
Following expansion cells were washed excessively to remove any exogenous IL2 and plated into 96-well U-bottom plates. Cells were supplemented with IL2 (Proleukin) or Eltrombopag (Stratech Scientific, Suffolk, UK). At various time points thereafter cells were either stained with a 1:400 dilution of eFlor-450 fixable viability dye (eBioscience, UK) and counted directly from the wells using a MACSQuant Cytometer, or were stained with DRAQ7 viability dye plus phycoerythrin conjugated anti-CD110 antibodies (Miltenyi Biotec, UK) and analysed using a MACSQuant cytomter. Cell viability and/or transduction level was then analysed using MACSQuantify software (Miltenyi Biotec, UK).
Next Applicants took these receptors and expressed them in primary human T-cells and exposed these cells to IL-2 or Eltrombopag. Three donor primary human T-cell populations were isolated from buffy coats and transduced with the indicated lentiviral constructs in the presence of CD3/CD28 Dynabeads. Following expansion the cells were incubated with IL-2 or Eltrombopag. Applicants saw an increase in expansion/survival of T-cells with some of the receptors in some of the donors. […] This narrowed Applicants' panel of receptors to analyse further to: TpoR.CD40, TpOR.IL2rγ, TpoR.ITAM1, TpOR.LMP1-cyt, and TpoR.TpoR-cyt-LMP1-cyt.

[3] = system: phospho-STAT5; assay: Induction of pSTAT5 in CrGFR expressing T-cells; format: cell-based, human; details: CrGFR expressing T-cells from 4 donors treated for four hours
Protocol: FIG. 15—Induction of pSTAT by chimeric recombinant growth factor receptors. Primary human T-cells were isolated and transduced with the indicated CrGFR. Cells were enriched for CrGFR expression using Miltenyi MACS technology and expanded via polyclonal stimulation. The enriched cells were stimulated for 4 h with either media alone (RPMI), IL2, IL12, Tpo or Eltrombopag (Elt) before methanol fixation and intracellular staining with antibodies towards phospho-STAT5.
Finally, Applicants validated the signalling potential of the novel CrGFR by conducting phospho STAT analysis upon treatment of CrGFR expressing T-cells with media, cytokine or drug. To this end T-cells from 4 donors were transduced with either the wt TpoR, TpoR. CD40 or TpoR.IL2rγ, enriched for CrGFR expression using paramagnetic bead selection protocols and then expanded using polyclonal stimulation. The cells were treated for four hours with media alone (RPMI), IL-2, Tpo or Eltrombopag (Elt) before methanol fixation, permeabilization and analysis using pSTAT specific antibodies. STAT molecules are the key drivers of cell signalling upon cytokine activation of cells, pSTAT5 in particular is key to IL-2 activity.

| Molecule | expansion of CrGFR cells above that with media alone [1] | proportion of viable cells with a distinct population of CD110+ cells [2] | induction of pSTAT5 by cytokine or drug [3] |
| --- | --- | --- | --- |
| TpoR.LMP1-cyt: SEQ ID NO: 12; TpoR EC and TM domain fused to LMP-1 cytoplasmic domain | expansion | good proportion of viable cells with a distinct population of CD110+ cells |  |
| Tpo: thrombopoietin (Tpo), native ligand of TpoR |  |  | showed induction of STAT5 activity |
| TpoR.TpoR-cyt-LMP1-cyt: SEQ ID NO: 11; TpoR with TpoR cytoplasmic domain fused to LMP-1 cytoplasmic domain |  | good proportion of viable cells with a distinct population of CD110+ cells |  |
| IL-12: IL-12 as a control (protein, UniProt P29459 23-219; P29460 23-328, looked up) Interleukin-12 subunit alpha: RNLPVATPDPGMFPCLHHSQNLLRAVSNMLQKARQTLEFYPCTSEEIDHEDITKDKTSTVEACLPLELTKNESCLNSRETSFITNGSCLASRKTSFMMALCLSSIYEDLKMYQVEFKTMNAKLLMDPKRQIFLDQNMLAVIDELMQALNFNSETVPQKSSLEEPDFYKTKIKLCILLHAFRIRAVTIDRVMSYLNAS Interleukin-12 subunit beta: IWELKKDVYVVELDWYPDAPGEMVVLTCDTPEEDGITWTLDQSSEVLGSGKTLTIQVKEFGDAGQYTCHKGGEVLSHSLLLLHKKEDGIWSTDILKDQKEPKNKTFLRCEAKNYSGRFTCWWLTTISTDLTFSVKSSRGSSDPQGVTCGAATLSAERVRGDNKEYEYSVECQEDSACPAAEESLPIEVMVDAVHKLKYENYTSSFFIRDIIKPDPPKNLQLKPLKNSRQVEVSWEYPDTWSTPHSYFSLTFCVQVQGKSKREKKDRVFTDKTSATVICRKNASISVRAQDRYYSSSWSEWASVPCS |  |  | unable to induce STAT5 activation |
| TpoR.Δ60: SEQ ID NO: 2; TpoR with C-terminal truncation of the cytoplasmic domain (protein, TpoR.delta60; MISC_FEATURE (1)..(491): TpoR Extracellular Domain; MISC_FEATURE (492)..(513): TpoR Transmembrane Domain; MISC_FEATURE (514)..(580): TpoR Cytoplasmic Domain with C-terminal Truncation) MPSWALFMVTSCLLLAPQNLAQVSSQDVSLLASDSEPLKCFSRTFEDLTCFWDEEEAAPSGTYQLLYAYPREKPRACPLSSQSMPHFGTRYVCQFPDQEEVRLFFPLHLWVKNVFLNQTRTQRVLFVDSVGLPAPPSIIKAMGGSQPGELQISWEEPAPEISDFLRYELRYGPRDPKNSTGPTVIQLIATETCCPALQRPHSASALDQSPCAQPTMPWQDGPKQTSPSREASALTAEGGSCLISGLQPGNSYWLQLRSEPDGISLGGSWGSWSLPVTVDLPGDAVALGLQCFTLDLKNVTCQWQQQDHASSQGFFYHSRARCCPRDRYPIWENCEEEEKTNPGLQTPQFSRCHFKSRNDSIIHILVEVTTAPGTVHSYLGSPFWIHQAVRLPTPNLHWREISSGHLELEWQHPSSWAAQETCYQLRYTGEGHQDWKVLEPPLGARGGTLELRPRSRYRLQLRARLNGPTYQGPWSSWSDPTRVETATETAWISLVTALHLVLGLSAVLGLLLLRWQFPAHYRRLRHALWPSLPDLHRVLGQYLRDTAALSPPKATVSDTCEEVEPSLLEILPKSSERTPL |  | looked good |  |
| TpoR.ITAM1: SEQ ID NO: 10; TpoR fused to ITAM1 cytoplasmic domain (protein, TpoR-ITAM1; MISC_FEATURE (1)..(491): TpoR Extracellular Domain; MISC_FEATURE (492)..(513): TpoR Transmembrane Domain; MISC_FEATURE (514)..(635): TpoR Cytoplasmic Domain; MISC_FEATURE (636)..(676): ITAM1 Cytoplasmic Domain) MPSWALFMVTSCLLLAPQNLAQVSSQDVSLLASDSEPLKCFSRTFEDLTCFWDEEEAAPSGTYQLLYAYPREKPRACPLSSQSMPHFGTRYVCQFPDQEEVRLFFPLHLWVKNVFLNQTRTQRVLFVDSVGLPAPPSIIKAMGGSQPGELQISWEEPAPEISDFLRYELRYGPRDPKNSTGPTVIQLIATETCCPALQRPHSASALDQSPCAQPTMPWQDGPKQTSPSREASALTAEGGSCLISGLQPGNSYWLQLRSEPDGISLGGSWGSWSLPVTVDLPGDAVALGLQCFTLDLKNVTCQWQQQDHASSQGFFYHSRARCCPRDRYPIWENCEEEEKTNPGLQTPQFSRCHFKSRNDSIIHILVEVTTAPGTVHSYLGSPFWIHQAVRLPTPNLHWREISSGHLELEWQHPSSWAAQETCYQLRYTGEGHQDWKVLEPPLGARGGTLELRPRSRYRLQLRARLNGPTYQGPWSSWSDPTRVETATETAWISLVTALHLVLGLSAVLGLLLLRWQFPAHYRRLRHALWPSLPDLHRVLGQYLRDTAALSPPKATVSDTCEEVEPSLLEILPKSSERTPLPLCSSQAQMDYRRLQPSCLGTMPLSVCPPMAESGSCCTTHIANHSYLPLSYWQQPRVKFSRSADAPAYQQGQNQLYNELNLGRREEYDVLDKRRGR |  | good proportion of viable cells with a distinct population of CD110+ cells |  |
